Reference: ChEMBL document CHEMBL5131389, “PSMA-targeted small-molecule docetaxel conjugate: Synthesis and preclinical evaluation” (Eur J Med Chem, 2022)
Values joined by “and” are separate entries in the source; they are usually repeats but may differ in a detail not shown here. Identical values can stand only once. Active and inactive are the calls of the source. The calls are words filed in the database; no cut-off is given here.

Experiments:
[1] = AUC (0 to t) in Albino Wistar rat at 15 mg/kg, iv administered as pluronic F127 formulation measured upto 72 hrs by high-performance liquid chromatography tandem mass spectrometric analysis; type: ADME, organism-based; design: dose 15 mg/kg, time < 72 hrs, route iv; conditions: in vivo
[2] = Acute toxicity in Wistar rat assessed as lethal dose administered intravenously as pluronic F127 formulation and measured for 14 days; conditions: in vivo, route iv, time 14 day
[3] = Acute toxicity in ICR mouse assessed as coprostasis at 183 to 960 mg/kg, iv administered as pluronic F127 formulation and measured for 14 days; type: organism-based; conditions: in vivo, 336 h, dose 183-960 mg/kg, time 14 day
[4] = Volume of distribution in Soviet Chinchilla rabbit at 8.1 mg/kg, iv administered as pluronic F127 formulation measured upto 72 hrs by high-performance liquid chromatography tandem mass spectrometric analysis; type: ADME, organism-based, Oryctolagus cuniculus; conditions: in vivo
CWR22R [5] = test: Antitumor activity against human 22Rv1 cells xenografted in Balb/c nude mouse assessed as tumor growth inhibition at 10 mg/kg, ip administered once in two days for three times and measured 4 days after the end of treatment relative to control; type: functional; conditions: 22Rv1, 240 h, time 10 day, read-out: TGI
[6] = Toxicity in BALB/c nude mouse xenografted with human DU-145 cells assessed as animal death at 30 to 60 mg/kg, ip measured upto 30 days; type: organism-based; conditions: in vivo, 720 h, dose 30-60 mg/kg, time < 30 day
PC-3 [7] = test: Cytotoxicity against human PC-3 cells assessed as reduction in cell viability measured after 72 hrs by MTT assay; type: functional
[8] = Acute toxicity in Wistar rat assessed as liver damage at 15 to 279 mg/kg, iv administered as pluronic F127 formulation and measured for 14 days; type: organism-based; conditions: in vivo, 336 h, dose 15-279 mg/kg, time 14 day
[9] = Ratio of AUC (t to infinity) to AUC (0 to infinity) in Soviet Chinchilla rabbit at 8.1 mg/kg, iv administered as pluronic F127 formulation measured upto 72 hrs by high-performance liquid chromatography tandem mass spectrometric analysis; type: ADME, organism-based, Oryctolagus cuniculus; conditions: in vivo
[10] = Acute toxicity in Wistar rat assessed as coprostasis at 15 to 279 mg/kg, iv administered as pluronic F127 formulation and measured for 14 days; type: organism-based; conditions: in vivo, 336 h, dose 15-279 mg/kg, time 14 day
[11] = AUC (0 to t) in Soviet Chinchilla rabbit at 8.1 mg/kg, iv administered as pluronic F127 formulation measured upto 72 hrs by high-performance liquid chromatography tandem mass spectrometric analysis; type: ADME, organism-based, Oryctolagus cuniculus; design: dose 8.1 mg/kg, time < 72 hrs, route iv; conditions: in vivo
PC-3 [12] = test: Induction of ROS generation in human PC-3 cells at 800 mV holding potential measured after 1 hr by patch clamp amplifier based optical inverted microscopic analysis; type: functional, cell-based
[13] = Clearance in Albino Wistar rat at 15 mg/kg, iv administered as pluronic F127 formulation measured upto 72 hrs by high-performance liquid chromatography tandem mass spectrometric analysis; type: ADME, organism-based; conditions: in vivo
[14] = AUC (0 to infinity) in Albino Wistar rat at 15 mg/kg, iv administered as pluronic F127 formulation measured upto 72 hrs by high-performance liquid chromatography tandem mass spectrometric analysis; type: ADME, organism-based; design: dose 15 mg/kg, time < 72 hrs, route iv; conditions: in vivo
[15] = C0 in Soviet Chinchilla rabbit at 8.1 mg/kg, iv administered as pluronic F127 formulation measured upto 72 hrs by high-performance liquid chromatography tandem mass spectrometric analysis; type: ADME, organism-based, Oryctolagus cuniculus; conditions: in vivo
[16] = Chronic toxicity in rat assessed as reduction in grooming frequency at 22.5 mg/kg, iv administered as pluronic F127 formulation at 4 intervals for 21 days and observed 3 weeks post last injection; type: organism-based; conditions: in vivo, 2544 h, time 106 day
[17] = Volume of distribution in Albino Wistar rat at 15 mg/kg, iv administered as pluronic F127 formulation measured upto 72 hrs by high-performance liquid chromatography tandem mass spectrometric analysis; type: ADME, organism-based; conditions: in vivo
[18] = Acute toxicity in Wistar rat assessed as kidney lesion at 15 to 279 mg/kg, iv administered as pluronic F127 formulation and measured for 14 days; type: organism-based; conditions: in vivo, 336 h, dose 15-279 mg/kg, time 14 day
[19] = Acute toxicity in Wistar rat assessed as decrease in body weight administered intravenously as pluronic F127 formulation and measured for 14 days; conditions: in vivo, iv, 336 h, dose 15-279 mg/kg, time 14 day
CWR22R [20] = test: Antitumor activity against human 22Rv1 cells xenografted in Balb/c nude mouse assessed as tumor growth inhibition at 20 mg/kg, ip administered once in two days for three times and measured 7 days after the end of treatment relative to control; type: functional; conditions: 22Rv1, 312 h, time 13 day, read-out: TGI
[21] = Acute toxicity in Wistar rat assessed as maximum tolerated dose administered intravenously as pluronic F127 formulation and measured for 14 days; conditions: in vivo, route iv, time 14 day
[22] = Chronic toxicity in rat assessed as change in relative density of urine at 22.5 mg/kg, iv administered as pluronic F127 formulation at 4 intervals for 21 days and observed 3 weeks post last injection; type: organism-based; conditions: in vivo, 2544 h, time 106 day
[23] = Chronic toxicity in rat assessed as increase in relative lung mass administered intravenously as pluronic F127 formulation for 4 intervals of 21 days and observed 3 weeks post last injection relative to control; conditions: in vivo, iv, 2544 h, time 106 day
Liver carboxylesterase = biological target: T1, Liver carboxylesterase (Sus scrofa, UniProt Q29550); test: Stability of the compound in porcine liver esterase assessed as compound remaining measured upto 96 hrs by LCMS based mass spectrometric analysis relative to initial amount; type: ADME; conditions: pig, read-out: Stability
T1 sequence (Q29550 whole entry): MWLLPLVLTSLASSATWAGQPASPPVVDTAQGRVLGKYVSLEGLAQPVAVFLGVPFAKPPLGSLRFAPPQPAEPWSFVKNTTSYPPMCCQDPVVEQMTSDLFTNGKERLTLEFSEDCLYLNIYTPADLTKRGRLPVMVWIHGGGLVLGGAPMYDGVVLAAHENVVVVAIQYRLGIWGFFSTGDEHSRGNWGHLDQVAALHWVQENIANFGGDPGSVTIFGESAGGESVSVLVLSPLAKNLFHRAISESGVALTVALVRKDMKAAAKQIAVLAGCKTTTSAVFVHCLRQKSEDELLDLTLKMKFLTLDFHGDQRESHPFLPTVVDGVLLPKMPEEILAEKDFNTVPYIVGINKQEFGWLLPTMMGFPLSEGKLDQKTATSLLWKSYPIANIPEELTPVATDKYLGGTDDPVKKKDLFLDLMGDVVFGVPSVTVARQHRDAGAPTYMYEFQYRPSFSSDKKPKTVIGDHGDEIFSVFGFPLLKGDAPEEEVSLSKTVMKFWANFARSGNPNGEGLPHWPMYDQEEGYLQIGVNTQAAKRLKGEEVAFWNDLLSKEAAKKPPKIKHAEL

[24] = Acute toxicity in ICR mouse assessed as lethal dose administered intravenously as pluronic F127 formulation and measured for 14 days; conditions: in vivo, route iv, time 14 day
[25] = Stability of the compound in pH 5.5 buffer measured upto 96 hrs by LC-MS based mass spectrometric analysis; type: physicochemical; conditions: pH 5.5, 96 h
[26] = Chronic toxicity in rat assessed as hair loss at 15 to 18.45 mg/kg, iv administered as pluronic F127 formulation at 4 intervals for 21 days and observed 3 weeks post last injection; type: organism-based; conditions: in vivo, 2544 h, dose 15-18.45 mg/kg, time 106 day

With CC(=O)O[C@@]12CO[C@@H]1C[C@H](O)[C@@]1(C)C(=O)[C@H](O)C3=C(C)[C@@H](OC(=O)[C@H](OC(=O)CCCc4cn(CCCNC(=O)[C@H](Cc5ccc(O)cc5)NC(=O)[C@H](Cc5ccccc5)NC(=O)CCC(=O)NCCCCCC(=O)N(CCCC[C@H](NC(=O)N[C@@H](CCC(=O)O)C(=O)O)C(=O)O)Cc5cccc(Cl)c5)nn4)[C@@H](NC(=O)OC(C)(C)C)c4ccccc4)C[C@@](O)([C@@H](OC(=O)c4ccccc4)[C@H]21)C3(C)C the AUC(0-t) at 72 h [1] was 28000 ng·h/mL, the LD50 at 336 h [2] was 58 mg/kg and 30 µmol/kg and the Activity [3] was “Toxic”. For the same compound, the Vd [4] was 0.332 L/kg, the inhibition in vivo at 10 mg/kg (CWR22R [5]) was 88% and the Activity [6] was “Non-Toxic”. The CC50 (PC-3 [7]) was 2.8 nM, the Activity [8] was “Toxic” and the “Ratio AUC” value [9] was 12%. For the same compound, the Activity [10] was “Toxic”, the AUC(0-t) at 72 h [11] was 253000 ng·h/mL and the Activity (PC-3 [12]) was “Active”. The clearance [13] was 9.15 mL/min/kg, the AUC(0-inf) [14] was 34000 ng·h/mL and the C0 at 72 h [15] was 79 µg/mL. For the same compound, the Activity [16] was “Toxic”, the Vd [17] was 0.631 L/kg and the Activity [18] was “Toxic”. The Activity [19] was “Toxic”, the inhibition in vivo at 20 mg/kg (CWR22R [20]) was 85% and the MTD at 336 h [21] was 15 mg/kg. For the same compound, the Activity [22] was “Toxic”, the Activity [23] was “Toxic” and the remaining at 96 h (Liver carboxylesterase) was 60%. For the same compound, the LD50 at 336 h [24] was 409 mg/kg and 210 µmol/kg, the Stability [25] was “Unstable” and the Activity [26] was “Non-Toxic”.
